Laboratory results taken from patent publication US20180290138A1, “MICROFLUIDIC CHIP FOR SCREENING ANTICANCER DRUG RESISTANT CELLS AND USE THEREOF” (RESEARCH & BUSINESS FOUNDATION SUNGKYUNKWAN UNIVERSITY, priority 2015, published 2018).

Columns and labels:
[1] = system: U87 cells; assay: Evaluation of anticancer drug resistance: cell viability with doxorubicin, U87 cells (WT cells); assay type: cell-based; conditions: Homo sapiens, U-87 MG; U87 cells (WT cells) cultured in general medium; 72 h culture; living cell count; non-linear regression
Protocol: (§1) 3,000 cells (U87 and U87-DG cells) were seeded into a 96-well plate in 200 μl of an MEM medium containing doxorubicin at various concentrations (0, 0.005, 0.01, 0.02, 0.05, 0.1, 0.2, 0.5, 0.75, and 1 μM). After seventy-two hours of culturing, the number of living cells in each well was calculated. Cell viability was calculated by dividing the number of living cells in a doxorubicin-contained well by the number of living cells in a doxorubicin-free well. After plotting a concentration of doxorubicin with respect to cell viability, IC50 was estimated through non-linear regression analysis using Graphpad Prism (GraphPad Software, Inc., La Jolla, Calif. USA).

[2] = system: U87-DG cells; assay: Evaluation of anticancer drug resistance: cell viability with doxorubicin, U87-DG cells (chip cells); assay type: cell-based; conditions: Homo sapiens; U87-DG cells (chip cells) cultured with Death galaxy chip under doxorubicin gradient; 72 h culture; living cell count; non-linear regression
From the text: In the Death galaxy chip, for 7 days, U87 cells derived from human primary glioblastoma were exposed to an anticancer drug such as doxorubicin according to a concentration gradient, and a hexagonal microchamber array was removed from a surface of the living cells (U87-DG cells)-attached cell culture plate. The inventors trypsinized the U87-DG cells to analyze the characteristic of phenotypes thereof, collected the cells, and transferred them to a new culture plate to culture the cells in a normal growth medium (MEM) for one week.
as §1

## COc1cccc2c1C(=O)c1c(O)c3c(c(O)c1C2=O)C[C@@](O)(C(=O)CO)C[C@@H]3O[C@H]1C[C@H](N)[C@H](O)[C@H](C)O1 [doxorubicin]
[1]
  IC50: 50 nM
[2]
  IC50: 1470 nM
